Measurements: US9695155B2, “Herbicidal substituted pyrimidinyloxy benzene compounds” (E. I. DU PONT DE NEMOURS AND COMPANY, priority 2013, dated 2017)

Experiments:
galium = experiment: Test C preemergence; type: in vivo, Galium aparine; details: for Galium plant response rating: preemergence; for Plant response rating, Galium: Preemergence, 31 g ai/ha, scale 0 to 100, 0 no effect, 100 complete control
Outline: (§1)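 Preemergence: seeds sown in a loam soil–sand blend and sprayed with test chemical in a non-phytotoxic solvent mixture containing surfactant. Postemergence: plants at 2 to 18 cm (1- to 4-leaf stage) in peat-based medium, treated with the same formulation. Greenhouse 13 to 15 days, then visual rating 0 (no effect) to 100 (complete control).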

soybean = experiment: Test C postemergence; type: in vivo, Glycine max; details: for Plant response rating (0 to 100), Soybean: 125 g ai/ha, postemergence; for Plant response rating, Soybean: Postemergence, scale 0 to 100 (0 no effect, 100 complete control)
Outline: as §1

barnyardgrass = experiment: Test B flooded paddy test; type: in vivo, Echinochloa crus-galli; details: Flood, 250 g ai/ha; 0 to 100 scale where 0 is no effect and 100 is complete control
Outline: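 Plants were grown to the 2-leaf stage, then pots were flooded to 3 cm above the soil and compounds were applied directly into the paddy water. That depth was held throughout, and after 13 to 15 days in the greenhouse injury was rated visually against controls on a 0–100 scale (0 no effect, 100 complete control).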

blackgrass = experiment: Test A postemergence; type: in vivo, Alopecurus myosuroides
Outline: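 Injury scores run from 0, no effect, to 100, complete control, judged by eye against untreated plants roughly 10 days after treatment. Chemicals carried a surfactant in a non-phytotoxic solvent and went onto loam–sand soil preemergence or onto one- to two-leaf seedlings postemergence.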

lambsquarters = experiment: Test C postemergence; type: in vivo, Chenopodium album; details: for Plant response rating (0 to 100), Lambsquarters: 125 g ai/ha, postemergence; for Plant response rating, Lambsquarters: Postemergence, scale 0 to 100 (0 no effect, 100 complete control)
Outline: as §1

morningglory [1] = experiment: Test C preemergence; type: in vivo, Ipomoea coccinea; details: for Morningglory plant response rating: preemergence; for Plant response rating, Morningglory: Preemergence, 31 g ai/ha, scale 0 to 100, 0 no effect, 100 complete control
Outline: as §1

wheat, winter = experiment: Test C postemergence; type: in vivo, Triticum aestivum; details: for Plant response rating (0 to 100), Wheat: 125 g ai/ha, postemergence; for Plant response rating, Wheat: Postemergence, scale 0 to 100 (0 no effect, 100 complete control)
Outline: as §1

oilseed rape = experiment: Test C postemergence; type: in vivo, Brassica napus; details: for Plant response rating (0 to 100), Oilseed Rape: 125 g ai/ha, postemergence; for Plant response rating, Oilseed Rape: Postemergence, scale 0 to 100 (0 no effect, 100 complete control)
Outline: as §1

yellow nutsedge = experiment: Test C preemergence; type: in vivo, Cyperus esculentus; details: for Nutsedge, Yellow plant response rating: preemergence; for Plant response rating, Nutsedge, Yellow: Preemergence, 31 g ai/ha, scale 0 to 100, 0 no effect, 100 complete control
Outline: as §1

morningglory [2] = experiment: Test C postemergence; type: in vivo, Ipomoea coccinea; details: for Plant response rating (0 to 100), Morningglory: 125 g ai/ha, postemergence; for Plant response rating, Morningglory: Postemergence, scale 0 to 100 (0 no effect, 100 complete control)
Outline: as §1

ragweed = experiment: Test C postemergence; type: in vivo, Ambrosia elatior; details: for Plant response rating (0 to 100), Ragweed: 125 g ai/ha, postemergence; for Plant response rating, Ragweed: Postemergence, scale 0 to 100 (0 no effect, 100 complete control)
Outline: as §1

corn = experiment: Test C preemergence; type: in vivo, Zea mays; details: for Corn plant response rating: preemergence; for Plant response rating, Corn: Preemergence, 31 g ai/ha, scale 0 to 100, 0 no effect, 100 complete control
Outline: as §1

[3] = 16 g ai/ha, scale 0 to 100 (0 no effect, 100 complete control)
[4] = 62 g ai/ha, scale 0 (no effect) to 100 (complete control)
[5] = 125 g ai/ha, scale 0 (no effect) to 100 (complete control)
[6] = 125 g ai/ha, 0 to 100 scale where 0 is no effect and 100 is complete control
[7] = 500 g ai/ha, 0 to 100 scale where 0 is no effect and 100 is complete control
[8] = 8 g ai/ha, scale 0 to 100 (0 no effect, 100 complete control)

Row | SMILES | Galium plant response rating (galium; [3]) | Galium plant response rating (galium; [4]) | Galium plant response rating (galium; [5]) | Plant response rating, Galium (galium) | Plant response rating (0 to 100), Soybean (soybean) | Plant response rating, Soybean (soybean; 31 g ai/ha, 13 to 15 days) | Plant response rating, Soybean (soybean; 62 g ai/ha) | Plant response rating, Barnyardgrass (barnyardgrass) | Plant response rating, Blackgrass (blackgrass; [6]) | Plant response rating (0 to 100), Lambsquarters (lambsquarters) | Plant response rating, Lambsquarters (lambsquarters; 31 g ai/ha, 13 to 15 days) | Morningglory plant response rating (morningglory [1]; [3]) | Morningglory plant response rating (morningglory [1]; [4]) | Plant response rating, Morningglory (morningglory [1]) | Nutsedge, Yellow plant response rating (yellow nutsedge; [3]) | Nutsedge, Yellow plant response rating (yellow nutsedge; [4]) | Plant response rating, Nutsedge, Yellow (yellow nutsedge) | Corn plant response rating (corn; [3]) | Corn plant response rating (corn; [4]) | Plant response rating, Corn (corn) | other results
1 | CC(C)c1cnn(-c2c(C#N)cccc2Oc2ncc(Cl)cn2)c1 [Compound 85] | 0 | 50 | 85 | 0 | 90 | 75 | 65 | 0 | 70 | 70 | 55 | 0 | 0 | 0 | 0 | 5 | 0 | 5 | 5 | 10 | Plant response rating, Blackgrass (blackgrass; 500 g ai/ha, 0 to 100 scale, 0 no effect, 100 complete control): 80; Plant response rating, Lambsquarters (lambsquarters; 62 g ai/ha): 75; Morningglory plant response rating (morningglory [1]; [5]): 20; Plant response rating (0 to 100), Wheat (wheat, winter): 0; Plant response rating, Wheat (wheat, winter; 31 g ai/ha, 13 to 15 days): 0; Plant response rating, Wheat (wheat, winter; 62 g ai/ha): 5; Plant response rating (0 to 100), Oilseed Rape (oilseed rape): 15; Plant response rating, Oilseed Rape (oilseed rape; 31 g ai/ha, 13 to 15 days): 5; Plant response rating, Oilseed Rape (oilseed rape; 62 g ai/ha): 30; Nutsedge, Yellow plant response rating (yellow nutsedge; [5]): 20; Plant response rating (0 to 100), Morningglory (morningglory [2]): 40; Plant response rating, Morningglory (morningglory [2]; 31 g ai/ha, 13 to 15 days): 60; Plant response rating, Morningglory (morningglory [2]; 62 g ai/ha): 25; Plant response rating (0 to 100), Ragweed (ragweed): 65; Plant response rating, Ragweed (ragweed; 31 g ai/ha, 13 to 15 days): 20; Plant response rating, Ragweed (ragweed; 62 g ai/ha): 20; Corn plant response rating (corn; [5]): 45
2 | Cc1cnc(Oc2cccc(C#N)c2-n2cc(C#N)cn2)nc1 [Compound 90] | 5 | 100 | 98 | 5 | 60 | 65 | 75 | 0 | 50 | 60 | 75 | 0 | 55 | 20 | 35 | 5 | 0 | 0 | 10 | 0 | Plant response rating, Blackgrass (blackgrass; [7]): 70; Plant response rating, Lambsquarters (lambsquarters; 62 g ai/ha): 60; Morningglory plant response rating (morningglory [1]; [5]): 100; Plant response rating (0 to 100), Wheat (wheat, winter): 0; Plant response rating, Wheat (wheat, winter; 31 g ai/ha, 13 to 15 days): 0; Plant response rating, Wheat (wheat, winter; 62 g ai/ha): 0; Plant response rating (0 to 100), Oilseed Rape (oilseed rape): 40; Plant response rating, Oilseed Rape (oilseed rape; 31 g ai/ha, 13 to 15 days): 5; Plant response rating, Oilseed Rape (oilseed rape; 62 g ai/ha): 50; Nutsedge, Yellow plant response rating (yellow nutsedge; [5]): 60; Plant response rating (0 to 100), Morningglory (morningglory [2]): 85; Plant response rating, Morningglory (morningglory [2]; 31 g ai/ha, 13 to 15 days): 60; Plant response rating, Morningglory (morningglory [2]; 62 g ai/ha): 75; Plant response rating (0 to 100), Ragweed (ragweed): 65; Plant response rating, Ragweed (ragweed; 31 g ai/ha, 13 to 15 days): 40; Plant response rating, Ragweed (ragweed; 62 g ai/ha): 50; Corn plant response rating (corn; [5]): 45
3 | N#Cc1cnn(-c2c(C#N)cccc2Oc2ncc(Br)cn2)c1 [Compound 135] | 0 | 90 |  | 80 |  |  |  | 30 |  |  |  | 50 | 80 | 50 | 0 | 15 | 0 | 10 | 30 | 5 | Galium plant response rating (galium; [8]): 0; Blackgrass plant response rating (blackgrass; [6]): 30; Plant response rating, Blackgrass (blackgrass; [7]): 90; Morningglory plant response rating (morningglory [1]; [8]): 5; Nutsedge, Yellow plant response rating (yellow nutsedge; [8]): 0; Corn plant response rating (corn; [8]): 5
